Holding throughout (assay): growth of human tumour cells (NCI), 48 h
Experiment [1] has as its system 786-0.
The test system of experiment [2] is NCI-H522.
For experiment [3], the system named is NCI-H460.
For experiment [4], the system named is OVCAR-8.
In experiment [5] the test system is HCT-15.
Experiment [6] concerns SK-MEL-2.
Experiment [7] relates to MDA-N.
Experiment [8] has as its system TK-10.
Experiment [9] has as its system SK-OV-3.
Experiment [10] concerns OVCAR-3.
The subject of experiment [11] is UACC-62.
The test system of experiment [12] is CCRF-CEM.
Experiment [13] deals with UACC-257.
For experiment [14], the system named is HCC 2998.
Experiment [15] concerns SNB-19.
In experiment [16] the test system is SN12C.
The test system of experiment [17] is T47D.
Experiment [18] deals with HL-60.
The test system of experiment [19] is SW-620.

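Briefly, cells in 96-well plates were exposed to five compound concentrations for 48 h, and endpoints were estimated by linear interpolation. GI50 marks 50% less growth.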 Active and inactive are the calls of the source. Rule as the data show it: active = GI50 up to about 1.1 µM and inactive = higher.

In the case of `CCCn1cnc2c(SCC(=O)O)nc(N)nc21`, the GI50 in [1] is > 100 µM (inactive); in [2], > 100 µM (inactive); in experiment [3] it was > 100 µM (inactive); in [4], > 100 µM (inactive); in [5], more than 100 µM; in experiment [6], > 100 µM (inactive). Also, the GI50 in [7], in experiment [8], in [9], in [10], in experiment [11] and in experiment [12] was > 100 µM (inactive) each time. Further, the GI50 in experiment [13], in [14], in experiment [15], in experiment [16], in experiment [17] and in experiment [18] was > 100 µM (inactive) throughout. Further, in experiment [19], the GI50 was > 100 µM (inactive).
As for `COc1cc(NCc2ccc3oc(=O)c(-c4ccccc4)nc3c2)cc(OC)c1OC`, the GI50 in experiment [1] was > 10 µM (inactive); in experiment [2], > 10 µM (inactive); in experiment [3], > 10 µM (inactive); in experiment [4], > 10 µM (inactive); in experiment [5], more than 10 µM; in [6] it was > 10 µM (inactive). The GI50 in [7], in experiment [8], in [9], in experiment [10], in experiment [11] and in [12] was > 10 µM (inactive) throughout. Also, the GI50 in [13], in experiment [14], in [15], in experiment [16], in experiment [17] and in experiment [18] was > 10 µM (inactive) each time. The GI50 in [19] was > 10 µM (inactive).
On to `CC(C)[Si]1(C(C)C)OCC2OC(n3c(C(=O)c4ccccc4)cc(=O)[nH]c3=O)CC2O[Si](C(C)C)(C(C)C)O1` (stereo not given), for which the GI50 in experiment [1] was 3.05 µM (inactive); in experiment [2], 1.7 µM (inactive); in [3], 3.58 µM (inactive); in experiment [4], 1.99 µM (inactive); in experiment [5] it was 2.72 µM; in experiment [6], 5.05 µM (inactive). For the same molecule, the GI50 is 3.2 µM (inactive) in experiment [7]; 3.24 µM (inactive) in experiment [8]; 11.9 µM (inactive) in experiment [9]; 2.08 µM (inactive) in experiment [10]; 2.81 µM (inactive) in [11]; 2.12 µM (inactive) in [12]. Moreover, the GI50 in [13] is 2.34 µM (inactive); in experiment [14] it was 1.65 µM (inactive); in experiment [15], 7.71 µM (inactive); in experiment [16], 2.39 µM (inactive); in experiment [17], 4.36 µM (inactive); in experiment [18] it was 2.67 µM (inactive). The GI50 in experiment [19] is 2.81 µM (inactive).
Regarding `Cc1c(/N=N/c2ccc(Cl)cc2)c(C)n(C2OC(CO)C(O)C(O)C2O)c(=S)c1C#N` (stereo not given), the GI50 in experiment [1] is 18.5 µM (inactive); in experiment [2] it was 20 µM (inactive); in experiment [3], 25.8 µM (inactive); in experiment [4] it was 30.1 µM (inactive); in experiment [5] it was 23.8 µM; in experiment [6], 14.7 µM (inactive). Moreover, the GI50 in experiment [7] was 21.6 µM (inactive); in experiment [8] it was 28.6 µM (inactive); in [9], 37.4 µM (inactive); in [10], 12.8 µM (inactive); in [11], 3.25 µM (inactive); in experiment [12], 18.5 µM (inactive). Moreover, the GI50 is 24.2 µM (inactive) in experiment [13]; 23.7 µM (inactive) in experiment [14]; > 100 µM (inactive) in [15]; 15.5 µM (inactive) in [16]; 32.7 µM (inactive) in experiment [17]; 22.1 µM (inactive) in experiment [18]. The GI50 in [19] was > 100 µM (inactive).
For the molecule `N#CC12C(=O)N3C(=NC(c4ccccc4)NC3c3ccccc3)C1(C#N)C(c1ccccc1)NC1=C2CCC1` (stereo not given), the GI50 in experiment [1] was > 100 µM (inactive); in experiment [2], > 100 µM (inactive); in [3], > 100 µM (inactive); in experiment [4] it was > 100 µM (inactive); in experiment [5] it was more than 100 µM; in [6], > 100 µM (inactive). Besides, the GI50 in experiment [7], in experiment [8], in experiment [9], in [10], in experiment [11] and in experiment [12] was > 100 µM (inactive) each time. Moreover, the GI50 in experiment [13], in experiment [14], in [15], in [16], in [17] and in experiment [18] was > 100 µM (inactive) each time. The GI50 in [19] was > 100 µM (inactive).
As for `CN1CCN(c2nc3c(c(=O)n(C)c(=O)n3C)n2C)CC1`, the GI50 in experiment [1] was > 100 µM (inactive); in experiment [2], > 100 µM (inactive); in [3] it was > 100 µM (inactive); in [4] it was > 100 µM (inactive); in [5], more than 100 µM; in experiment [6], > 100 µM (inactive). For the same molecule, the GI50 in [7], in experiment [8], in experiment [9], in experiment [10], in [11] and in [12] was > 100 µM (inactive) in each case. Besides, the GI50 in experiment [13], in experiment [14], in experiment [15], in experiment [16], in experiment [17] and in experiment [18] was > 100 µM (inactive) throughout. For the same molecule, in experiment [19], the GI50 was > 100 µM (inactive).
For `Cn1cncc1CC1COC(=O)C1C(O)c1ccccc1` (stereo not given), the GI50 was > 100 µM (inactive) in experiment [1]; > 100 µM (inactive) in [2]; > 100 µM (inactive) in experiment [3]; > 100 µM (inactive) in experiment [4]; more than 100 µM in experiment [5]; > 100 µM (inactive) in experiment [6]. Moreover, the GI50 in [7], in experiment [8], in experiment [9], in [10], in experiment [11] and in [12] was > 100 µM (inactive) throughout. In addition, the GI50 in experiment [13], in [14], in experiment [15], in experiment [16], in [17] and in experiment [18] was > 100 µM (inactive) each time. For the same molecule, the GI50 in [19] is > 100 µM (inactive).
On to `Cc1nc2ccccc2c(-n2cccn2)c1CCn1cccn1`, for which the GI50 in [1] was > 100 µM (inactive); in [2] it was > 100 µM (inactive); in [3], > 100 µM (inactive); in [4], > 100 µM (inactive); in experiment [5], more than 100 µM; in experiment [6] it was > 100 µM (inactive). The GI50 in experiment [7] was > 100 µM (inactive); in experiment [8], > 100 µM (inactive); in [9], > 100 µM (inactive); in experiment [10], 40.4 µM (inactive); in experiment [11] it was 80.2 µM (inactive); in experiment [12], 66.1 µM (inactive). For the same molecule, the GI50 in experiment [13], in experiment [14], in experiment [15], in [16], in experiment [17] and in experiment [18] was > 100 µM (inactive) throughout. Also, in [19], the GI50 was > 100 µM (inactive).
On to `COc1ccc(CCN2C(=O)C(=O)C(C(=O)c3ccccc3)C2c2ccccc2)cc1OC` (stereo not given), for which the GI50 in experiment [1] was > 100 µM (inactive); in experiment [2] it was > 100 µM (inactive); in experiment [3] it was > 100 µM (inactive); in experiment [4], > 100 µM (inactive); in experiment [5], 60.5 µM; in [6] it was > 100 µM (inactive). Further, the GI50 in [7] is > 100 µM (inactive); in experiment [8], > 100 µM (inactive); in experiment [9], > 100 µM (inactive); in experiment [10], > 100 µM (inactive); in experiment [11], > 100 µM (inactive); in experiment [12], 56.5 µM (inactive). The GI50 is > 100 µM (inactive) in [13]; > 100 µM (inactive) in [14]; > 100 µM (inactive) in experiment [15]; 67.8 µM (inactive) in experiment [16]; 90.8 µM (inactive) in [17]; > 100 µM (inactive) in experiment [18]. Further, the GI50 in experiment [19] is > 100 µM (inactive).
For `COc1nc(N=P(c2ccccc2)(c2ccccc2)c2ccccc2)cc(=O)[nH]1`, the GI50 in experiment [1] is > 100 µM (inactive); in experiment [2] it was > 100 µM (inactive); in experiment [3], > 100 µM (inactive); in [4], > 100 µM (inactive); in [5], more than 100 µM; in experiment [6], > 100 µM (inactive). Besides, the GI50 in [7], in [8], in experiment [9], in experiment [10], in [11] and in experiment [12] was > 100 µM (inactive) throughout. In addition, the GI50 in experiment [13], in experiment [14], in [15], in experiment [16], in experiment [17] and in experiment [18] was > 100 µM (inactive) each time. Moreover, the GI50 in experiment [19] is > 100 µM (inactive).

These data come from ChEMBL document CHEMBL1201862, “PubChem BioAssay data set” (2004).
